Assays:
[1] = tested on: follicular lymphoma; settings: double-refractory cases; Salles et al., Haematologica 2017; cited from earlier work
[2] = tested on: T cells; experiment: T-cell activation with immobilized anti-CD3 in the presence of lenalidomide; type: cell-based; settings: lenalidomide 5 or 50 μM with CD3 crosslinking, 3 days, vs no lenalidomide
Description: T cells were pre-incubated with assay medium or lenalidomide in the absence or presence of CD3 crosslinking by immobilized anti-CD3 for 3 days (as indicated on the x-axes), after which upregulation of CD69, CD25, PD-1 and LAMP-1 on CD4^+ and CD8^+ T cells was determined by flow cytometry. Data shown are geomean fluorescence intensities (FI) for four donors (each circle represents one condition for one donor). Pre-incubation conditions are shown on the x-axis.
(§1) Briefly, T cells were activated with immobilized anti-CD3 in the presence (5 or 50 μM) or absence of lenalidomide for 3 days. […] T cells that were activated in the presence or absence of lenalidomide were subsequently tested for their cytotoxic capacity in response to epcoritamab.

[3] = biological target: T1, CD20 (Homo sapiens, UniProt P11836); settings: rituximab versus IgG1-CD20; different epitopes; cited from earlier work
T1 sequence (P11836 1-297): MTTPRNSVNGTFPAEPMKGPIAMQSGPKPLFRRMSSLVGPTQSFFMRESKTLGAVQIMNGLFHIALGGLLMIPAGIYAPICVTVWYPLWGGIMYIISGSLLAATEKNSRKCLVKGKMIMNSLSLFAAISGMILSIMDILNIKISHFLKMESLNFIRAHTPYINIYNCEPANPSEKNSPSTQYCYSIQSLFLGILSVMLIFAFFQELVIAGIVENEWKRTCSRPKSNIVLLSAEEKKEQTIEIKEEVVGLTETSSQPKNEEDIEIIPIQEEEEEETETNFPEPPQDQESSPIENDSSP

[4] = tested on: CD20-expressing Daudi cells; experiment: T-cell-mediated cytotoxicity assay with lenalidomide-pre-treated T cells; type: cell-based; settings: T cells pre-treated with lenalidomide and anti-CD3; E:T ratio 2:1
Description: T cells were incubated with (5 or 50 μM) or without lenalidomide in the absence or presence of immobilized anti-CD3 for 3 days. T cells were then used in a cytotoxicity assay with DuoBody-CD3×CD20 or DuoBody-CD3×ctrl (containing a CD3 arm and a non-binding control arm) and CD20-expressing Daudi cells as target cells (E:T ratio 2:1). Data shown are average percentages cytotoxicity±SD of duplicates, normalized to medium control (no antibody, no lenalidomide).
as §1

[5] = tested on: primary DLBCL and follicular lymphoma patient biopsies; settings: biopsies taken after administration of an anti-CD20 antibody; cited from earlier work
[6] = tested on: CD20-expressing Raji-luc tumor cells; settings: NOD-SCID mice with Raji-luc cells and PBMCs; even with excess IgG1-RTX-FEAR; cited from earlier work

Compound: CC[C@H](Nc1ncnc2[nH]cnc12)c1nc2cccc(F)c2c(=O)n1-c1ccccc1 [idelalisib]
- 1-year PFS [1]: 43%

Compound: Nc1cccc2c1CN(C1CCC(=O)NC1=O)C2=O (stereo not shown) [lenalidomide, 3-(4-Amino-1-oxo-1,3-dihydro-2H-isoindol-2-yl) piperidine-2,6-dione]
- T-cell activation (upregulation of CD69, CD25; release of granzyme B and IFNγ) [2]: increased T-cell activation

Compound: IgG1-CD20: CD20 antibody of which the CD20 arm of epcoritamab is derived (7D8)
- Competition for CD20 binding [3]: compete for CD20 binding

Compound: epcoritamab: IgG1 bispecific CD3×CD20 antibody; heavy/light chain pairs SEQ ID NOs: 24/25 and 26/27; CAS 2134641-34-0
- Activity at lower epcoritamab concentrations [4]: higher activity at lower epcoritamab concentrations
- Maximum percent cytotoxicity [4]: Higher maximum percent cytotoxicity
- T-cell-mediated cytotoxicity in patient biopsies [5]: induced T-cell-mediated cytotoxicity
- Tumor growth in xenograft model [6]: effectively reduce tumor growth

Source: patent US11608383B2, “Bispecific antibody against CD3 and CD20 in combination therapy for treating follicular lymphoma” (GENMAB A/S, priority 2020, dated 2023)
